# Source: EP0144809A2, “Complex platinum compounds of substituted 5,8-dihydroxy-1,4 naphtoquinones, process for their preparation and their use” (NATEC Institut für naturwissenschaftlich- technische …, priority 1983, dated 1985)
# Tested on: Ehrlich Ascites Tumor
# Experiment: Standard test with Ehrlich ascites tumor in ICR mice (antitumor activity)
# Assay type: in vivo, ICR-Mäusen
# Details: Dose 6 mg Pt-Komplex pro kg, intraperitoneal on day 1 and day 6; Cure = animals that survived longer than 60 days; two groups (20 mice) for the control
# Source text: Zur Ermittlung der antikarzinogenen Aktivität der erfindungsgemäßen Platinkomplexverbindungen wurde der Standardtest mit dem Ehrlich Ascites Tumor an ICR-Mäusen angewendet. […] Die Tumorzellen sowie die Platinkomplexverbindungen wurden am Tag Null bzw. am 1. und 6. Tag intraperitonal injiziert. Die Resultate wurden in der nachstehenden Tabelle II zusammengestellt.
# Der Terminus "Cure" wurde vom National Cancer Institute, USA, übernommen und bedeutet, wieviele Tiere länger als 60 Tage überlebt haben. Aus den Resultaten geht deutlich hervor, daß die erfindungsgemäßen Platinkomplexverbindungen gegenüber den bekannten Antitumormitteln der Vergleichsbeispiele 1 und 7 eine mindestens gleich gute, meist sogar deutlich bessere Antitumorwirkung zeigen.
structure (smiles),measurement,value
"N.N.[Cl][Pt][Cl] [Positive Kontrolle, cis-Dichloro-diamino-platin(II)]","Anzahl der ""Cures"" pro Tiergruppe",4
